In US20130102593A1, “PYRROLIDINE COMPOUNDS WHICH INHIBIT BETA-SECRETASE ACTIVITY AND METHODS OF USE THEREOF” (priority 2008, published 2013):

Test system: Aβ production
Test: Cellular Aβ IC50 determination (memapsin 2 activity in a cellular assay of Aβ production)
Assay type: cell-based, Chinese hamster
Conditions: Cricetulus griseus; CHO cells over-expressing human APP695, Aβ40 ELISA; read-out: M2 IC50
Description: The potency of compounds against memapsin 2 activity was determined in a cellular assay of Aβ production. […] Chinese hamster ovary cells that over-express human APP695 with the London and Swedish mutations were seeded in multi-well plates at 10% confluency. Compounds are dissolved in DMSO to concentrations near 1 mM, and diluted into culture media to a final concentration near 4 μM (final 0.4% DMSO). Compounds were diluted serially and applied to cells in multi-well plates 48 h after seeding. Incubation was continued in 5% CO2 at 37° C. for 24 h. Aliquots were removed and assayed for […] content using a sandwich ELISA (BioSource International). Amount of Aβ40 over the range of concentration of compounds, relative to control incubations, were fit to a 4-parameter IC50 model.

Structure (SMILES) | IC50 [µM]
Cc1csc([C@H]2CCCN2C(=O)c2cc(C(=O)N[C@@H](Cc3ccccc3)[C@H](O)[C@H]3C[C@@H](OCc4ccccc4)CN3)cc(-n3cccc3)c2)n1 [1-25, N-((1R,2S)-1-((2R,4R)-4-(benzyloxy)pyrrolidin-2-yl)-1-hydroxy-3-phenylpropan-2-yl)-3-((R)-2-(4-methylthiazol-2-yl)pyrrolidine-1-carbonyl)-5-(1H-pyrrol-1-yl)benzamide] | 0.0556

Same assay, conditions: Cricetulus griseus; Chinese hamster ovary cells over-expressing human APP695 with London and Swedish mutations, 24 h, Aβ40 sandwich ELISA; read-out: M2 IC50

Structure (SMILES) | IC50 [µM]
Cc1csc([C@H]2CCCN2C(=O)c2cccc(C(=O)N[C@@H](Cc3ccccc3)[C@H](O)[C@H]3C[C@@H](OCc4ccccc4)CN3)c2)n1 [1-22, N-((1R,2S)-1-((2R,4R)-4-(benzyloxy)pyrrolidin-2-yl)-1-hydroxy-3-phenylpropan-2-yl)-3-((R)-2-(4-methylthiazol-2-yl)pyrrolidine-1-carbonyl)benzamide] | < 0.5
Cc1csc([C@H]2CCCN2C(=O)c2cc(C(=O)N[C@@H](Cc3ccccc3)[C@H](O)[C@H]3CCCN3)cc(N(C)S(C)(=O)=O)c2)n1 [1-23, N-((1R,2S)-1-hydroxy-3-phenyl-1-((R)-pyrrolidin-2-yl)propan-2-yl)-3-(N-methylmethylsulfonamido)-5-((R)-2-(4-methylthiazol-2-yl)pyrrolidine-1-carbonyl)benzamide] | < 0.5
Cc1coc([C@H]2CCCN2C(=O)c2cc(C(=O)N[C@@H](Cc3ccccc3)[C@H](O)[C@H]3CCCN3)cc(-c3ccccn3)c2)n1 [1-24, N-((1R,2S)-1-hydroxy-3-phenyl-1-((R)-pyrrolidin-2-yl)propan-2-yl)-3-((R)-2-(4-methyloxazol-2-yl)pyrrolidine-1-carbonyl)-5-(pyridin-2-yl)benzamide] | < 0.5
Cc1csc([C@H]2CCCN2C(=O)c2cc(C(=O)N[C@@H](Cc3ccccc3)[C@H](O)[C@H]3C[C@@H](OCc4ccccc4)CN3)cc(-n3cccc3)c2)n1 [1-25, N-((1R,2S)-1-((2R,4R)-4-(benzyloxy)pyrrolidin-2-yl)-1-hydroxy-3-phenylpropan-2-yl)-3-((R)-2-(4-methylthiazol-2-yl)pyrrolidine-1-carbonyl)-5-(1H-pyrrol-1-yl)benzamide] | < 0.5
Cc1csc(CN(C)C(=O)c2cc(C(=O)N[C@@H](Cc3ccccc3)[C@H](O)[C@H]3CCCN3)cc(N(C)S(C)(=O)=O)c2)n1 [1-27, N1-((1R,2S)-1-hydroxy-3-phenyl-1-((R)-pyrrolidin-2-yl)propan-2-yl)-N3-methyl-5-(N-methylmethylsulfonamido)-N3-((4-methylthiazol-2-yl)methyl)isophthalamide] | < 0.5
Cc1csc([C@H]2CCCN2C(=O)c2cc(F)cc(C(=O)N[C@@H](Cc3ccccc3)[C@H](O)[C@H]3CCCN3)c2)n1 [1-32, 3-fluoro-N-((1R,2S)-1-hydroxy-3-phenyl-1-((R)-pyrrolidin-2-yl)propan-2-yl)-5-((R)-2-(4-methylthiazol-2-yl)pyrrolidine-1-carbonyl)benzamide] | > 1
Cc1csc([C@H]2CCCN2C(=O)c2cc(C(=O)N[C@@H](Cc3ccccc3)[C@H](O)[C@H]3CCCN3)cc(N3CCOCC3)c2)n1 [1-33, N-((1R,2S)-1-hydroxy-3-phenyl-1-((R)-pyrrolidin-2-yl)propan-2-yl)-3-((R)-2-(4-methylthiazol-2-yl)pyrrolidine-1-carbonyl)-5-morpholinobenzamide] | > 1
COc1cc(C(=O)N[C@@H](Cc2ccccc2)[C@H](O)[C@H]2CCCN2)cc(C(=O)N2CCC[C@@H]2c2nc(C)cs2)c1 [1-34, N-((1R,2S)-1-hydroxy-3-phenyl-1-((R)-pyrrolidin-2-yl)propan-2-yl)-3-methoxy-5-((R)-2-(4-methylthiazol-2-yl)pyrrolidine-1-carbonyl)benzamide] | > 1
Cc1csc([C@H]2CCCN2C(=O)c2cc(CF)cc(C(=O)N[C@@H](Cc3ccccc3)[C@H](O)[C@H]3C[C@@H](OCc4ccccc4)CN3)c2)n1 [1-36, N-((1R,2S)-1-((2R,4R)-4-(benzyloxy)pyrrolidin-2-yl)-1-hydroxy-3-phenylpropan-2-yl)-3-(fluoromethyl)-5-((R)-2-(4-methylthiazol-2-yl)pyrrolidine-1-carbonyl)benzamide] | < 0.5
Cc1csc([C@H]2CCCN2C(=O)c2cc(C(=O)N[C@@H](Cc3ccccc3)[C@H](O)[C@H]3CCCN3)cc(N3CCCC3=O)c2)n1 [1-39, N-((1R,2S)-1-hydroxy-3-phenyl-1-((R)-pyrrolidin-2-yl)propan-2-yl)-3-((R)-2-(4-methylthiazol-2-yl)pyrrolidine-1-carbonyl)-5-(2-oxopyrrolidin-1-yl)benzamide] | < 0.5
Cc1csc([C@H]2CCCN2C(=O)c2cccc(C(=O)N[C@@H](Cc3ccccc3)[C@H](O)[C@H]3CCCN3)c2)n1 [1-40, N-((1R,2S)-1-hydroxy-3-phenyl-1-((R)-pyrrolidin-2-yl)propan-2-yl)-3-((R)-2-(4-methylthiazol-2-yl)pyrrolidine-1-carbonyl)benzamide] | 0.5 to 1
Cc1csc(CN(C)C(=O)c2cccc(C(=O)N[C@@H](Cc3cc(F)cc(F)c3)[C@H](O)[C@H]3CCCN3)c2)n1 [1-41, N1-((1R,2S)-3-(3,5-difluorophenyl)-1-hydroxy-1-((R)-pyrrolidin-2-yl)propan-2-yl)-N3-methyl-N3-((4-methylthiazol-2-yl)methyl)isophthalamide] | > 1
Cc1csc([C@H]2CCCN2C(=O)c2cc(C(=O)N[C@@H](Cc3ccccc3)[C@H](O)[C@H]3CCCN3)cc(N(C)C)c2)n1 [1-42, 3-(dimethylamino)-N-((1R,2S)-1-hydroxy-3-phenyl-1-((R)-pyrrolidin-2-yl)propan-2-yl)-5-((R)-2-(4-methylthiazol-2-yl)pyrrolidine-1-carbonyl)benzamide] | > 1
Cc1csc([C@H]2CCCN2C(=O)c2cc(C(=O)N[C@@H](Cc3ccccc3)[C@H](O)[C@H]3CCCN3)cc(-c3cccc(C(F)(F)F)c3)c2)n1 [1-43, N-((1R,2S)-1-hydroxy-3-phenyl-1-((R)-pyrrolidin-2-yl)propan-2-yl)-5-((R)-2-(4-methylthiazol-2-yl)pyrrolidine-1-carbonyl)-3′-(trifluoromethyl)biphenyl-3-carboxamide] | > 1
Cc1csc([C@H]2CCCN2C(=O)c2cccc(C(=O)N[C@@H](Cc3cc(F)cc(F)c3)[C@H](O)[C@H]3CCCN3)c2)n1 [1-44, N-((1R,2S)-3-(3,5-difluorophenyl)-1-hydroxy-1-((R)-pyrrolidin-2-yl)propan-2-yl)-3-((R)-2-(4-methylthiazol-2-yl)pyrrolidine-1-carbonyl)benzamide] | 0.5 to 1
Cc1csc([C@H]2CCCN2C(=O)c2cc(CF)cc(C(=O)N[C@H](Cc3ccccc3)[C@H](O)[C@H]3C[C@@H](OCc4ccccc4)CN3)c2)n1 [1-45, N-((1R,2R)-1-((2R,4R)-4-(benzyloxy)pyrrolidin-2-yl)-1-hydroxy-3-phenylpropan-2-yl)-3-(fluoromethyl)-5-((R)-2-(4-methylthiazol-2-yl)pyrrolidine-1-carbonyl)benzamide] | > 1
Cc1csc([C@H]2CCCN2C(=O)c2cc(C(=O)N[C@@H](Cc3ccccc3)[C@H](O)[C@H]3CCCN3)cc(N3CCC(F)(F)CC3)c2)n1 [1-46, 3-(4,4-difluoropiperidin-1-yl)-N-((1R,2S)-1-hydroxy-3-phenyl-1-((R)-pyrrolidin-2-yl)propan-2-yl)-5-((R)-2-(4-methylthiazol-2-yl)pyrrolidine-1-carbonyl)benzamide] | 0.5 to 1
Cc1csc([C@H]2CCCN2C(=O)c2cccc(C(=O)N[C@@H](Cc3ccccc3)[C@H](O)[C@H]3C[C@H](F)CN3)c2)n1 [1-47, N-((1R,2S)-1-((2R,4S)-4-fluoropyrrolidin-2-yl)-1-hydroxy-3-phenylpropan-2-yl)-3-((R)-2-(4-methylthiazol-2-yl)pyrrolidine-1-carbonyl)benzamide] | > 1
Cc1csc([C@H]2CCCN2C(=O)c2cccc(C(=O)N[C@@H](Cc3ccccc3)[C@H](O)[C@@H]3CCCN3)c2)n1 [1-48, N-((1R,2S)-1-hydroxy-3-phenyl-1-((S)-pyrrolidin-2-yl)propan-2-yl)-3-((R)-2-(4-methylthiazol-2-yl)pyrrolidine-1-carbonyl)benzamide] | > 1
Cc1csc([C@H]2CCCN2C(=O)c2cc(C(=O)N[C@@H](Cc3cc(F)cc(F)c3)[C@H](O)[C@H]3CCCN3)cc(-c3ncco3)c2)n1 [1-49, N-((1R,2S)-3-(3,5-difluorophenyl)-1-hydroxy-1((R)-pyrrolidin-2-yl)propan-2-yl)-3-((R)-2-(4-methylthiazol-2-yl)pyrrolidine-1-carbonyl)-5-(oxazol-2-yl)benzamide] | < 0.5
Cc1csc([C@H]2CCCN2C(=O)c2cc(C(=O)N[C@@H](Cc3ccccc3)[C@H](O)[C@H]3CCCN3)cc(C3CC3)c2)n1 [1-50, 3-cyclopropyl-N-((1R,2S)-1-hydroxy-3-phenyl-1-((R)-pyrrolidin-2-yl)propan-2-yl)-5-((R)-2-(4-methylthiazol-2-yl)pyrrolidine-1-carbonyl)benzamide] | > 1
Cc1csc([C@H]2CCCN2C(=O)c2cccc(C(=O)N[C@@H](Cc3ccccc3)[C@H](O)[C@H]3CC[C@@H](C)N3)c2)n1 [1-51, N-((1R,2S)-1-hydroxy-1-((2R,5R)-5-methylpyrrolidin-2-yl)-3-phenylpropan-2-yl)-3-((R)-2-(4-methylthiazol-2-yl)pyrrolidine-1-carbonyl)benzamide] | > 1
Cc1csc([C@H]2CCCN2C(=O)c2cc(C(=O)N[C@@H](Cc3ccccc3)[C@H](O)[C@H]3C[C@@H](OCc4ccccc4)CN3)cc(-c3ncco3)c2)n1 [1-52, N-((1R,2S)-1-((2R,4R)-4-(benzyloxy)pyrrolidin-2-yl)-1-hydroxy-3-phenylpropan-2-yl)-3-((R)-2-(4-methylthiazol-2-yl)pyrrolidine-1-carbonyl)-5-(oxazol-2-yl)benzamide] | < 0.5
Cc1csc([C@H]2CCCN2C(=O)c2cccc(C(=O)N[C@@H](Cc3cccc(F)c3)[C@H](O)[C@H]3CCCN3)c2)n1 [1-53, N-((1R,2S)-3-(3-fluorophenyl)-1-hydroxy-1-((R)-pyrrolidin-2-yl)propan-2-yl)-3-((R)-2-(4-methylthiazol-2-yl)pyrrolidine-1-carbonyl)benzamide] | 0.5 to 1
